# Measurements: article PMC7497412 (RSC Advances, 2020)
# What was measured:
# Test in all cases: microbe, parasite or virus in culture
# Format in all cases: cell-based
# M. tb R506/XDR = details: Mycobacterium tuberculosis, read-out: M. tb MIC R506/XDR
# M. tb TF274/XDR = details: Mycobacterium tuberculosis, read-out: M. tb MIC TF274/XDR
# M. tb KZN494/MDR = details: Mycobacterium tuberculosis, read-out: M. tb MIC KZN494/MDR
# M. tb V2475/MDR = details: Mycobacterium tuberculosis, read-out: M. tb MIC V2475/MDR
SMILES,MIC (M. tb R506/XDR) [µM],MIC (M. tb TF274/XDR) [µM],MIC (M. tb KZN494/MDR) [µM],MIC (M. tb V2475/MDR) [µM]
"O=C(NC1CCCCCCC1)c1ccc2ccccc2c1 [13c, N-Cyclooctyl-2-naphthamide]",3.55,3.55,7.11,7.11
"O=C(NC12CC3CC(CC(C3)C1)C2)c1ccc2ccccc2c1 [13d, N-(1-Adamantanyl)-2-naphthamide]",3.27,3.27,6.55 to 13.1,6.55
"O=C(Nc1nc(-c2ccc(Cl)cc2Cl)cs1)C12CC3CC(CC(C3)C1)C2 [18b, N-(4-(2,4-Dichlorophenyl)thiazol-2-yl)adamantane-1-carboxamide]",4.91 to 9.82,4.91,9.82,19.6
"O=C(NC12CC3CC(CC(C3)C1)C2)c1cc(=O)c2c(Br)cccc2[nH]1 [8i, N-(1-Adamantanyl)-5-bromo-4-oxo-1,4-dihydroquinoline-2-carboxamide]",4.98,4.98,9.97,9.97
